The record followed here is ChEMBL document CHEMBL1158267, “Lycaconitine revisited: partial synthesis and neuronal nicotinic acetylcholine receptor affinities” (J Nat Prod, 1996).

Data set [1] can be described thus: Toxicity in iv dosed mouse. The settings on record: in vivo. In kind it is organism-based.
Data set [2] has as its target Neuronal acetylcholine receptor subunit alpha-7 (Rattus norvegicus, UniProt Q05941). The experiment in a line: Displacement of [125I]alpha-bungarotoxin from alpha7 nAChR in rat brain membrane. In kind it is cell membranes.
The target of data set [3] is Neuronal acetylcholine receptor; alpha4/beta2 (Rattus norvegicus, UniProt P09483+P12390). The experiment in a line: Displacement of [3H]cytisine from alpha4beta2 nAChR in rat brain membrane. In kind it is cell membranes. Background: In a radioligand displacement assay an active substance lowers the binding of a labelled ligand.
Chain of Neuronal acetylcholine receptor; alpha4/beta2 (P09483 whole entry): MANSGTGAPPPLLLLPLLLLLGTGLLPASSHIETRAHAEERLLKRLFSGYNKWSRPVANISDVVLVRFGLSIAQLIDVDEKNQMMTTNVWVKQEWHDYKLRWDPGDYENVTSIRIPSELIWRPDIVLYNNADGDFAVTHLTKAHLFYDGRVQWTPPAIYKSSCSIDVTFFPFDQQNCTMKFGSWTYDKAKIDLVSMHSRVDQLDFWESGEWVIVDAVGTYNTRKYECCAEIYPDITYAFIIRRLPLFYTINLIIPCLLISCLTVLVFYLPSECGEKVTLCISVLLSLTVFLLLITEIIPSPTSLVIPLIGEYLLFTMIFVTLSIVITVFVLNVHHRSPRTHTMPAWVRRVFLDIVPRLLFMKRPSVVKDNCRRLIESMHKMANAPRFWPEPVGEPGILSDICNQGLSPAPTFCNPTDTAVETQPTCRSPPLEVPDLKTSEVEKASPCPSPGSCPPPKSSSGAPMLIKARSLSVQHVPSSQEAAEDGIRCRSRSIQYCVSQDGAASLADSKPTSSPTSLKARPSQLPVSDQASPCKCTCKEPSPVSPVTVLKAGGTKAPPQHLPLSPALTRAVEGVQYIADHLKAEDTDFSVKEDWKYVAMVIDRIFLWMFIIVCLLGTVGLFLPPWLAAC
Chain of Neuronal acetylcholine receptor; alpha4/beta2 (P12390 whole entry): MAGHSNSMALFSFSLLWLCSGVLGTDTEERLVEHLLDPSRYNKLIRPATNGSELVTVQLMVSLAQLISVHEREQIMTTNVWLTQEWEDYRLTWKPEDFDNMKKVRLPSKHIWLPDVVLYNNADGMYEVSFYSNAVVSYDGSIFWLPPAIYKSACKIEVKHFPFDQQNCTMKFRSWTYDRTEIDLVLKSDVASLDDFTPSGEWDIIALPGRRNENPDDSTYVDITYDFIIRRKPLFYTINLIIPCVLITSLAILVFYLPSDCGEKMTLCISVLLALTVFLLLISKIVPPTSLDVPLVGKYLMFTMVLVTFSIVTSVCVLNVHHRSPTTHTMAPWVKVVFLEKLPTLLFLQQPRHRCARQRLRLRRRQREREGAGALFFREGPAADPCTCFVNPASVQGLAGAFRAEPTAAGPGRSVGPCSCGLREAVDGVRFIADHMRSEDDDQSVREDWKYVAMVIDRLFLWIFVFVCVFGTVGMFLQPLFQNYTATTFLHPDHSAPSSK

Chain of Neuronal acetylcholine receptor subunit alpha-7 (Q05941 whole entry): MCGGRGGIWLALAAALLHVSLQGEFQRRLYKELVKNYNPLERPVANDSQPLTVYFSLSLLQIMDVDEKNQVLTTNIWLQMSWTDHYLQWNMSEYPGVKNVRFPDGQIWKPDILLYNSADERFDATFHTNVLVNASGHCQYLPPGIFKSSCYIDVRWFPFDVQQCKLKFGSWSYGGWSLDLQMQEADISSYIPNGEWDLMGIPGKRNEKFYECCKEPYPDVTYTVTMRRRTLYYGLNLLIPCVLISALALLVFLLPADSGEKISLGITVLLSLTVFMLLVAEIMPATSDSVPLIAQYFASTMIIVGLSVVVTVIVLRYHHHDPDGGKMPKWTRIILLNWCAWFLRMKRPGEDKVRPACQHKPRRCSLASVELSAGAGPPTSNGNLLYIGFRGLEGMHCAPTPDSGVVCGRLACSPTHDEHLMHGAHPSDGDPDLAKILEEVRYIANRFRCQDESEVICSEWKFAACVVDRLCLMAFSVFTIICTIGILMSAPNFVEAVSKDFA

With `CCN1C[C@]2(COC(=O)c3ccccc3N3C(=O)CCC3=O)CC[C@H](OC)[C@]34C1[C@](O)([C@@H](OC)[C@H]23)[C@@]1(O)C[C@H](OC)[C@H]2C[C@@H]4[C@@H]1[C@H]2OC` [LYCACONITINE], the LD50 – broadly, the dose expected to kill half of the subjects tested – in data set [1] was 15 mg/kg. Moreover, the Ki (in general, a dissociation constant, usually derived from enzyme kinetics or from competition with a known ligand) was 80 nM in data set [2] and 1000 nM in data set [3].
`CCN1C[C@]2(COC(=O)c3ccccc3N3C(=O)C[C@H](C)C3=O)CC[C@H](OC)[C@@]34[C@@H]5C[C@H]6[C@H](OC)[C@@H]5[C@](O)(C[C@@H]6OC)[C@](O)([C@@H](OC)[C@H]23)[C@@H]14` [METHYLLYCACONITINE] had an LD50 in data set [1] of 3 mg/kg.
